According to patent publication US20180125993A1 (BEIJING COTIMES BIOTECH COMPANY LIMITED, priority 2014, published 2018):
Marks after values point to notes of the source that are not given here.

Assays:
[1] = system: WiDr; test: Human colon cancer Widr subcutaneous model (Day 27 after treatment); assay type: in vivo, nude mice
Procedure: (§1) Tumor cells (i.e., MIA-PaCa-2, WiDr, H2122, colo205) were inoculated in nude mice's flank at 5×10^6 cells per mouse. The mice were grouped when the average volume of tumors reached about 100˜200 mm^3. “QW”=weekly dose. “Q3d”=dosed every third day. “BiW”=biweekly.
(§2) The bodyweight and major/minor axis of the mice were measured twice a week, and the tumor volumes were calculated using the formula: Tumor volume=1/2×major axis[…]. […] “T” represents average tumor volume of the experimental group (cm^3), and “C” represents average tumor volume of the control group (cm^3). The animals were monitored at all times. The bodyweight and major/minor axis or mice were measured twice a week.
(§3) Tumor volumes were represented with average±standard error. […] P<0.05 represents significant difference.

[2] = system: Colo205; test: Human colon cancer Colo205 subcutaneous model (Day 28 after treatment); assay type: in vivo, nude mice; conditions: for TGI calculated using the tumor volume / TGI calculated using the tumor weights: repeated experiment
Procedure: as §1, §2, §3

[3] = system: lung cancer, CS225, 1#; test: Patients primary tumor tissue subcutaneous model (Day 37 after treatment); assay type: in vivo, nude mice; conditions: HuCTB006 10 mg/kg i.v. QW × 5w
From the text: Fresh primary tumor tissues from patients were implanted in NOD/SCID mice's flank, which developed into a primary tumor, which was then transferred to the nude mice's flank to allow the tumor reaching an exponential growth phase, and the tumor was named 1# tumor, and so on. When the tumor volume and number reached passage requirements, they were implanted into the right flank of nude mice. When the tumors' average volumes reached 100-200 mm^3, the mice were grouped.
The bodyweight and major/minor axis of mice were measured twice a week, and Tumor Growth Inhibition (TGI) and tumor volume were calculated same as in 5.1.5. In addition, to evaluate the synergetic effect of drug combination in tumor growth, Jin Zhengjun Q value judgment method was used with the follow formula: Q=Ea+b/(Ea+Eb−Ea×Eb). Ea+b is the inhibition ratio of drug combination, Ea and Eb are the inhibition ratio of each of drug treatment when it is administered alone. […] The animals were monitored, and when the experiments were concluded, mice were sacrificed and tumors were extracted and weighted. All the animal experiments confer to the regulations of animal's welfare and the management of experimental animal usage.
Tumor volumes were represented with average±standard error. Data analysis was done using Spss16.0, One-Way ANOVA, LSD (homogeneity of variance) or Dunnett T3 (non-homogeneity of variance). […] P<0.05 represents significant difference.

[4] = system: MDA-MB-468; test: In vitro cytotoxic sensitivity of CTB006; assay type: cell-based, human; conditions: MDA-MB-468, Breast cancer
[5] = system: ASPC-1; test: In vitro cytotoxic sensitivity of CTB006; assay type: cell-based, human; conditions: ASPC-1, Pancreatic cancer
[6] = system: MIA-PaCa-2; test: Human pancreatic cancer MIA-PaCa-2 subcutaneous model (34 days of treatment); conditions: for Tumor regression: treatment groups
Procedure: The bodyweight and major/minor axis of the mice were measured twice a week, and the tumor volumes were calculated using the formula: Tumor volume=1/2×major axis×minor axis. […] “T” represents average tumor volume of the experimental group (cm^3), and “C” represents average tumor volume of the control group (cm^3). The animals were monitored at all times. The bodyweight and major/minor axis or mice were measured twice a week. When the experiments were concluded, mice were sacrificed and tumors were extracted and weighted.

[7] = HuCTB006 0.07 mg/kg i.v. QW × 4W
[8] = HuCTB006 0.07 mg/kg i.v. QW × 4W, 0.07 mg/kg
[9] = HuCTB006 0.07 mg/kg i.v. QW × 4W, listed as HUCTB006, 0.07 mg/kg
[10] = HuCTB006 0.22 mg/kg i.v. QW × 4W
[11] = HuCTB006 0.22 mg/kg i.v. QW × 4W, 0.22 mg/kg
[12] = HuCTB006 0.22 mg/kg i.v. QW × 4W, listed as HUCTB006, 0.22 mg/kg
[13] = HuCTB006 0.67 mg/kg i.v. QW × 4W
[14] = HuCTB006 0.67 mg/kg i.v. QW × 4W, 0.67 mg/kg
[15] = HuCTB006 0.67 mg/kg i.v. QW × 4W, listed as HUCTB006, 0.67 mg/kg
[16] = HuCTB006 2 mg/kg i.v. QW × 4W, 2 mg/kg
[17] = HuCTB006 2 mg/kg i.v. QW × 4W, listed as HUCTB006, 2 mg/kg
[18] = repeated experiment, HuCTB006 0.07 mg/kg
[19] = repeated experiment, HuCTB006 0.22 mg/kg
[20] = repeated experiment, HuCTB006 0.67 mg/kg
[21] = repeated experiment, HuCTB006 2 mg/kg
[22] = HuCTB006 0.2 mg/kg i.v. QW × 4W
[23] = HuCTB006 0.2 mg/kg i.v. QW × 4W, 0.2 mg/kg
[24] = HuCTB006 0.6 mg/kg i.v. QW × 4W
[25] = HuCTB006 1.8 mg/kg i.v. QW × 4W
[26] = HuCTB006 5.4 mg/kg i.v. QW × 4W
[27] = HuCTB006 0.2 mg/kg i.v. QW × 6W
[28] = HuCTB006 0.6 mg/kg i.v. QW × 6W
[29] = repeated experiment, HuCTB006 0.2 mg/kg
[30] = repeated experiment, HuCTB006 0.6 mg/kg
[31] = repeated experiment, HuCTB006 1 mg/kg
[32] = repeated experiment, HuCTB006 10 mg/kg

Substance: HuCTB006: Monospecific humanized chimeric monoclonal antibody directed to TRAIL-R2 receptor; heavy chain SEQ ID NO: 14, light chain SEQ ID NO: 12
- T/C % (Calculated using tumor volume) [1, 7]: 90.16%
- Time of tumor volume changed significantly [1, 7]: 7
- Tumor Volume Mean ± SEM [1, 7]: 1.76 ± 0.18 cm^3
- Tumor weight Mean ± SEM [1, 7]: 1.29 ± 0.18 g
- TGI (Calculated using tumor volume) [1, 8]: 6.61%
- TGI (Calculated using tumor weight) [1, 8]: 11.99%
- TGI (Calculated using tumor volume) [1, 9]: 6.61% ^1
- TGI (Calculated using tumor weight) [1, 9]: 11.99%
- T/C % (Calculated using tumor volume) [1, 10]: 81.49%
- Time of tumor volume changed significantly [1, 10]: 7
- Tumor Volume Mean ± SEM [1, 10]: 1.54 ± 0.18 cm^3
- Tumor weight Mean ± SEM [1, 10]: 1.16 ± 0.13 g
- TGI (Calculated using tumor volume) [1, 11]: 18.71%
- TGI (Calculated using tumor weight) [1, 11]: 21.13%
- TGI (Calculated using tumor volume) [1, 12]: 18.71% ^ac
- TGI (Calculated using tumor weight) [1, 12]: 21.13%
- T/C % (Calculated using tumor volume) [1, 13]: 49.54%
- Time of tumor volume changed significantly [1, 13]: 11
- Tumor Volume Mean ± SEM [1, 13]: 0.96 ± 0.10 cm^3
- Tumor weight Mean ± SEM [1, 13]: 0.68 ± 0.08 g
- TGI (Calculated using tumor volume) [1, 14]: 49.42%
- TGI (Calculated using tumor weight) [1, 14]: 53.48%
- TGI (Calculated using tumor volume) [1, 15]: 49.42% ^abc
- TGI (Calculated using tumor weight) [1, 15]: 53.48% ^a
- T/C % (Calculated using tumor volume) ([1]; HuCTB006 2 mg/kg i.v. QW × 4W): 42.17%
- Time of tumor volume changed significantly ([1]; HuCTB006 2 mg/kg i.v. QW × 4W): 14
- Tumor Volume Mean ± SEM ([1]; HuCTB006 2 mg/kg i.v. QW × 4W): 0.80 ± 0.11 cm^3
- Tumor weight Mean ± SEM ([1]; HuCTB006 2 mg/kg i.v. QW × 4W): 0.53 ± 0.08 g
- TGI (Calculated using tumor volume) [1, 16]: 57.34%
- TGI (Calculated using tumor weight) [1, 16]: 63.81%
- TGI (Calculated using tumor volume) [1, 17]: 57.34% ^abc
- TGI (Calculated using tumor weight) [1, 17]: 63.81% ^a
- TGI (Calculated using tumor volume) [1, 18]: 36.21%
- TGI (Calculated using tumor weight) [1, 18]: 39.94%
- TGI (Calculated using tumor volume) [1, 19]: 54.98%
- TGI (Calculated using tumor weight) [1, 19]: 57.56%
- TGI (Calculated using tumor volume) [1, 20]: 53.73%
- TGI (Calculated using tumor weight) [1, 20]: 49.85%
- TGI (Calculated using tumor volume) [1, 21]: 53.77%
- TGI (Calculated using tumor weight) [1, 21]: 53.75%
- T/C % (Calculated using tumor volume) [2, 22]: 66.90%
- Time of tumor volume changed significantly [2, 22]: 10 Days after first treatment
- Tumor Volume Mean ± SEM [2, 22]: 1.24 ± 0.20 cm^3
- Tumor weight Mean ± SEM [2, 22]: 0.84 ± 0.14 g
- TGI (Calculated using tumor volume) [2, 23]: 35.62%
- TGI (Calculated using tumor weight) [2, 23]: 33.30%
- T/C % (Calculated using tumor volume) [2, 24]: 14.41%
- Tumor Volume Mean ± SEM [2, 24]: 0.29 ± 0.13 cm^3
- Tumor weight Mean ± SEM [2, 24]: 0.20 ± 0.10 g
- T/C % (Calculated using tumor volume) [2, 25]: 19.91%
- Tumor Volume Mean ± SEM [2, 25]: 0.38 ± 0.16 cm^3
- Tumor weight Mean ± SEM [2, 25]: 0.23 ± 0.12 g
- T/C % (Calculated using tumor volume) [2, 26]: 14.80%
- Time of tumor volume changed significantly [2, 26]: 7~10^2 Days after first treatment
- Tumor Volume Mean ± SEM [2, 26]: 0.28 ± 0.10 cm^3
- Tumor weight Mean ± SEM [2, 26]: 0.15 ± 0.07 g
- Bodyweights ([2]; all HuCTB006 treatment groups): did not show any notably changes
- Tumor regression ([2]; first experiment, treatment groups): four animals of HuCTB006 treatment groups showed tumor regression
- TGI calculated using the tumor volume ([2]; HuCTB006 0.2 mg/kg): 56.16%
- TGI calculated using the tumor weights ([2]; HuCTB006 0.2 mg/kg): 58.68%
- TGI calculated using the tumor volume ([2]; HuCTB006 0.6 mg/kg): 79.75%
- TGI calculated using the tumor weights ([2]; HuCTB006 0.6 mg/kg): 82.34%
- TGI calculated using the tumor volume ([2]; HuCTB006 1.8 mg/kg): 93.65%
- TGI calculated using the tumor weights ([2]; HuCTB006 1.8 mg/kg): 94.33%
- TGI calculated using the tumor volume ([2]; HuCTB006 5.4 mg/kg): 87.12%
- TGI calculated using the tumor weights ([2]; HuCTB006 5.4 mg/kg): 89.90%
- T/C % (Calculated using tumor volumes) [3]: 79.86%
- Time of tumor volume changed significantly [3]: 16
- Tumor Volume Mean ± SEM [3]: 0.86 ± 0.19 cm^3
- Tumor weight Mean ± SEM [3]: 0.89 ± 0.23 g
- TGI (Calculated using tumor volumes) ([3]; 10 mg/kg): 19.65%
- TGI (Calculated using tumor weight) ([3]; 10 mg/kg): −25.23%
- In vitro cytotoxic sensitivity of CTB006 [4]: Non-responder
- In vitro cytotoxic sensitivity of CTB006 [5]: Non-responder
- T/C % (Calculated using tumor volumes) [6, 27]: 52.01%
- Time of tumor volume changed significantly [6, 27]: 13 days after first treatment
- Tumor Volume Mean ± SEM [6, 27]: 1.76 ± 0.15 cm^3
- Tumor weight Mean ± SEM [6, 27]: 0.79 ± 0.07 g
- T/C % (Calculated using tumor volumes) [6, 28]: 38.43%
- Tumor Volume Mean ± SEM [6, 28]: 1.27 ± 0.43 cm^3
- Tumor weight Mean ± SEM [6, 28]: 0.54 ± 0.21 g
- T/C % (Calculated using tumor volumes) ([6]; HuCTB006 1 mg/kg i.v. QW × 6W): 24.02%
- Tumor Volume Mean ± SEM ([6]; HuCTB006 1 mg/kg i.v. QW × 6W): 0.88 ± 0.35 cm^3
- Tumor weight Mean ± SEM ([6]; HuCTB006 1 mg/kg i.v. QW × 6W): 0.37 ± 0.19 g
- T/C % (Calculated using tumor volumes) ([6]; HuCTB006 10 mg/kg i.v. QW × 6W): 23.01%
- Time of tumor volume changed significantly ([6]; HuCTB006 10 mg/kg i.v. QW × 6W): 7^2 days after first treatment
- Tumor Volume Mean ± SEM ([6]; HuCTB006 10 mg/kg i.v. QW × 6W): 0.76 ± 0.22 cm^3
- Tumor weight Mean ± SEM ([6]; HuCTB006 10 mg/kg i.v. QW × 6W): 0.19 ± 0.08 g
- Tumor regression ([6]; first experiment): some animals of HuCTB006 groups showed tumor regression
- Tumor regression ([6]; repeated experiment): some animals of HuCTB006 groups also showed tumor regression
- TGI calculated based on the tumor volume [6, 29]: 59.52%
- TGI calculated based on the tumor weight [6, 29]: 72.38%
- TGI calculated based on the tumor volume [6, 30]: 85.35%
- TGI calculated based on the tumor weight [6, 30]: 91.39%
- TGI calculated based on the tumor volume [6, 31]: 87.52%
- TGI calculated based on the tumor weight [6, 31]: 92.02%
- TGI calculated based on the tumor volume [6, 32]: 58.99%
- TGI calculated based on the tumor weight [6, 32]: 71.93%
- Bodyweights of mice ([6]; treatment groups over the time): slow increase over the time
